3 compounds from PMC11861427, “Functional Characterization of a Female-Biased Chemoreceptor of the Codling Moth (Cydia pomonella) Responding to Aldehydes and Other Volatile Compounds” (Journal of Chemical Ecology, 2025) can be followed below.

For experiment [1], the system named is T1, CpomOR22.
T1 construct: gene OR22
Nature of the experiment: SSR dose response and GC-SSR in transgenic Drosophila ab3A neurons. Set-up: species or system Cydia pomonella.

The test system of experiment [2] is T2, CpomOR22.
T2 construct: gene OR22; with CpomOrco
Nature of the experiment: two-electrode voltage clamp, Xenopus oocytes, dose response. Format: cell-based, Cydia pomonella. From the text: two-electrode voltage clamp, Xenopus oocytes, dose response on CpomOR22 | CpomOR22 dose responsiveness to undecanal and γ-undecalactone across five orders of magnitude
(In two-electrode clamp one electrode senses voltage and the other passes current.)

The subject of experiment [3] is T2, CpomOR22. The experiment in a line: two-electrode voltage clamp, Xenopus oocytes, dose response; also GC-SSR. The class given is cell-based, Cydia pomonella.

With `CCCC/C=C\CCCCC=O` [(Z)−6-undecenal], in the experiment with CpomOR22 [1], the EC50 is given as 2.903 ± 1.709 µg.

Take `CCCCCCCC1CCC(=O)O1` (stereo not drawn) [γ-undecalactone]: the EC50 in the experiment on CpomOR22 [2] worked out at 8.4 µM.

In the experiment on CpomOR22 [3], `CCCCCCCCCCC=O` [undecanal] came in with an EC50 of 16.7 µM.
